Drawing on publication doi:10.1101/2025.02.28.640722v1 (biorxiv, 2025), this text covers fold activation for one molecule.

The test concerns the target Human mitochondrial ClpP (hClpP) (Homo sapiens, UniProt Q16740). The test can be described thus: peptidase activation. The settings on record: activator at 1.5 mM, 200 nM human ClpP, no ATPase partner. Type of test: biochemical.

Structures are written as SMILES. Square brackets hold non-standard residues; d marks the D form. Peptide text beside a SMILES is read from it. * marks the point of attachment. hCha = N[C@@H](CCC1CCCCC1)C(=O)O; Bz = O=C(c1ccccc1)*

Human mitochondrial ClpP (hClpP), sequence (Q16740 57-277): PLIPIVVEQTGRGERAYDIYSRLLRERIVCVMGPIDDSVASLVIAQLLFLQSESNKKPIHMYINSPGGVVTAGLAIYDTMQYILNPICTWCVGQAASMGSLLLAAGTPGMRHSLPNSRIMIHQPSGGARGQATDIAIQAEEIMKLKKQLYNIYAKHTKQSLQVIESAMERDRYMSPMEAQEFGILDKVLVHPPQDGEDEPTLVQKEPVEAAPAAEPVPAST

As for `CC[C@H](C)[C@H](NC(=O)[C@H](CCC1CCCCC1)NC(=O)c1ccccc1)C(=O)O` [Bz-ChEtg-Ile] (Bz-[hCha]-Ile-OH), the fold activation is recorded as more than 15 times.
